Results published in US4232035A, “Carbamate pesticidal compounds compositions and methods of use” (priority 1975, dated 1980).

Columns and labels:
Type in all cases: in vivo
[1] = test system: bean aphid (Aphis fabae Scop.); experiment: Bean Aphid Foliage Spray Test; design: key: A: excellent control; B: partial control; C: no control; conditions: 500 parts per million foliage spray; 24 hour holding period
Procedure: (§1) Suspensions of the test compounds were prepared by dissolving one gram of compound in 50 milliliters of acetone in which had been dissolved 0.1 gram (10 percent of the weight of compound) of an alkylphenoxy polyethoxyethanol surfactant, as an emulsifying or dispersing agent. The resulting solution was mixed into 150 milliliters of water to give roughly 200 milliliters of a suspension containing the compound in finely divided form. The thus-prepared stock suspension contained 0.5 percent by weight of compound. The test concentrations in parts per million by weight employed in the tests described hereinbelow were obtained by appropriate dilutions of the stock suspension with water. The test procedures were as follows:
Adults and nymphal stages of the bean aphid (Aphis fabae Scop.) reared on potted dwarf nasturtium plants at 65°-70° F. and 50-70 percent relative humidity, constituted the test insects. For testing purposes, the number of aphids per pot was standardized to 100-150 by trimming plants containing excess aphids.
The test compounds were formulated by diluting the stock suspension with water to give a suspension containing 500 parts of test compound per million parts of final formulation.
The potted plants (one pot per compound tested) infested with 100-150 aphids, were placed on a revolving turntable and sprayed with 100-110 milliliters of test compound formulation by use of a DeVilbiss spray gun set at 40 psig. air pressure. This application, which lasted 25 seconds, was sufficient to wet the plants to run-off. As a control, 100-110 milliliters of a water-acetone-emulsifier solution containing no test compound were also sprayed on infested plants. After spraying, the pots were placed on their sides on a sheet of white standard mimeograph paper which had been previously ruled to facilitate counting. Temperature and humidity in the test room during the 24 hour holding period were 65°-70° F. and 50-70 percent, respectively. Aphids which fell onto the paper and were unable to remain standing after being uprighted were considered dead. Aphids remaining on the plants were observed closely for movement and those which were unable to move the length of the body upon stimulation by prodding were considered dead. Percent mortality was recorded for various concentration levels.

[2] = test system: two-spotted mite (Tetranychus urticae Koch); experiment: Mite Foliage Spray Test; design: key: A: excellent control; B: partial control; C: no control; conditions: 500 parts per million foliage spray; six days
Procedure: as §1
Adults and nymphal stages of the two-spotted mite (Tetranychus urticae Koch), reared on Tendergreen bean plants at 80±5 percent relative humidity, were the test organisms. Infested leaves from a stock culture were placed on the primary leaves of two bean plants six to eight inches in height, growing in a two-and-a-half inch clay pot. 150-200 Mites, a sufficient number for testing, transferred from the excised leaves to the fresh plants in a period of twenty four hours. Following the twenty four hour transfer period, the excised leaves were removed from the infested plants. The test compounds were formulated by diluting the stock suspension with water to give a suspension containing 500 parts of test compound per million parts of final formulation. The potted plants (one pot per compound) were placed on a revolving turntable and sprayed with 100-110 milliliters of test compound formulation by use of a DeVilbiss spray gun set at 40 psig. air pressure. This application, which lasted 25 seconds, was sufficient to wet the plants to run-off. As a control, 100-110 milliliters of a water solution containing acetone and emulsifier in the same concentrations as the test compound formulation, but containing no test compound, were also sprayed on infested plants. The sprayed plants were held at 80±5 percent relative humidity for six days, after which a mortality count of motile forms was made. Microscopic examination for motile forms was made on the leaves of the test plants. Any individual which was capable of locomotion upon prodding was considered living.

[3] = test system: southern armyworm (Prodenia eridania, (Cram.)); experiment: Southern Armyworm Leaf Spray Test; design: key: A: excellent control; B: partial control; C: no control; conditions: 500 parts per million leaf spray; three days
Procedure: as §1
Larvae of the southern armyworm (Prodenia eridania, (Cram.)), reared on Tendergreen bean plants at a temperature of 80°±5° F. and a relative humidity of 50±5 percent, constituted the test insects.
The test compounds were formulated by diluting the stock suspension with water to give a suspension containing 500 parts of test compound per million parts of final formulation. Potted Tendergreen bean plants of standard height and age were placed on a revolving turntable and sprayed with 100-110 milliliters of test compound formulation by use of a DeVilbiss spray gun set at 10 psig air pressure. This application, which lasted 25 seconds, was sufficient to wet plants to run-off. As a control, 100-110 milliliters of a water-acetone-emulsifier solution containing no test compound were also sprayed on infested plants. When dry, the paired leaves were separated and each one was placed in a 9 centimeter Petri dish lined with moistened filter paper. Five randomly selected larvae were introduced into each dish and the dishes were closed. The closed dishes were labeled and held at 80°-85° F. for three days. Although the larvae could easily consume the whole leaf within twenty-four hours, no more food was added. Larvae which were unable to move the length of the body, even upon stimulation by prodding, were considered dead. Percent mortality was recorded for various concentration levels.

[4] = test system: Mexican bean beetle (Epilachna varivestis, Muls.); experiment: Mexican Bean Beetle Leaf Spray Test; design: key: A: excellent control; B: partial control; C: no control; conditions: 500 parts per million leaf spray; fourth instar larvae; three days
Procedure: as §1
Fourth instar larvae of the Mexican bean beetle (Epilachna varivestis, Muls.), reared on Tendergreen bean plants at a temperature of 80°±5° F. and 50±5 percent relative humidity, were the test insects.
The test compounds were formulated by diluting the stock suspension with water to give a suspension containing 500 parts of test compound per million parts of final formulation. Potted Tendergreen bean plants of standard height and age were placed on a revolving turntable and sprayed with 100-110 milliliters of test compound formulation by use of a DeVilbiss spray gun set at 10 psig air pressure. This application, which lasted 25 seconds, was sufficient to wet plants to run-off. As a control, 100-110 milliliters of a water-acetone-emulsifier solution containing no test compound were also sprayed on infested plants. When dry, the paired leaves were separated and each was placed in a 9 centimeter Petri dish lined with moistened filter paper. Five randomly selected larvae were introduced into each dish, and the dishes were closed. The closed dishes were labeled and held at a temperature of 80°±5° F. for three days. Although the larvae could easily consume the leaf within 24 to 48 hours, no more food was added. Larvae which were unable to move the length of the body, even upon stimulation, were considered dead.

[5] = test system: house flies (Musca domestica, L.); experiment: Fly Bait Test; design: key: A: excellent control; B: partial control; C: no control; conditions: 500 parts per million bait in sugar solution; twenty four hours
Procedure: as §1
Four to six day old adult house flies (Musca domestica, L.) reared according to the specifications of the Chemical Specialties Manufacturing Association (Blue Book, McNair-Dorland Co., N.Y. 1954; pages 243-244, 261) under controlled conditions of 80°±5° F. and 50±5 percent relative humidity, were the test insects. The flies were immobilized by anesthetizing with carbon dioxide and twenty five immobilized individuals, males and females, were transferred to a cage consisting of a standard food strainer about five inches in diameter which was inverted over a wrapping-paper-covered surface. The test compounds were formulated by diluting the stock suspension with a 10 percent (by weight) sugar solution to give a suspension containing 500 parts of test compound per million parts of final formulation, by weight. Ten milliliters of the test formulation were added to a souffle cup containing a one-inch square of an absorbent cotton pad. This bait cup was introduced and centered on the blotting paper under the food strainer prior to admitting the anesthetized flies. The caged flies were allowed to feed on the bait for twenty four hours, at a temperature of 80°±5° F. and the relative humidity of 50±5 percent.

[6] = test system: root-knot nematode (Meloidogyne incognita var. acrita); experiment: Nematode Test; design: key: 1: severe galling; equal to untreated control; 2: moderate galling; 3: light galling; 4: very light galling; 5: no galling; conditions: 10 ml of 500 parts per million formulation per jar of soil; cucumber indicator crop, approximately three weeks
Procedure: as §1
Infective migratory larvae of the root-knot nematode, (Meloidogyne incognita var. acrita) were reared in the greenhouse on roots of Rutgers variety tomato plant. Infected tomato plants were removed from the culture and the roots were chopped very finely. A small amount of inoculum from the roots was added to pint Mason jars containing approximately 180 cc of soil. The jars containing the inoculum and soil were capped and incubated for one week at room temperature. During this period eggs of the nematode hatched and the larvae forms migrated into the soil.
The test compounds were formulated by diluting the stock suspension with water to give a suspension containing 500 parts of test compound per million parts of final formulation. 10 milliliters of the test formulation was added to each of two jars for each dosage treated. As a control 10 milliliters of a water-acetone-emulsifier solution containing no test compound was also added to jars containing nematode larvae. The jars were capped and the contents thoroughly mixed on a kale mill for five minutes. The jars remained capped at room temperature for a period of 48 hours and the contents were then transferred to 3 inch pots. Subsequently, the pots were seeded to cucumber as an indicator crop and placed in the green house where they were cared for in the normal fashion for growing potted cucumber for approximately three weeks. These cucumber plants were then removed from the pots, the soil washed from the roots and the amount of galling visually rated.

SMILES	Aphid, pesticidal activity rating [1]	Mite, pesticidal activity rating [2]	S. Armyworm, pesticidal activity rating [3]	M. Bean Beetle, pesticidal activity rating [4]	H. Fly, pesticidal activity rating [5]	Nematodes, nematocidal toxicity rating (galling) [6]
CCCCSSN(C)C(=O)ON=C1SC(C)(C)C(=O)N1C	A	A	A	A	A	5
Cc1ccc(SSN(C)C(=O)ON=C2SC(C)(C)C(=O)N2C)cc1	C	C	A	A	C	1
CN(SSc1ccccc1)C(=O)ON=C1SC(C)(C)C(=O)N1C	A	C	A	A	B	1
Cc1ccc(SSN(C)C(=O)ON=C2SCOC2C)cc1 (stereo not drawn)	A	A	A	A	A	1
CC1OCSC1=NOC(=O)N(C)SSC(C)(C)C (stereo not drawn)	A	A	A	A	A	1
